# Entries after “also recorded” stand apart in the source; their conditions may differ. Where two headings read alike, the source gives them in different places.
# Tests used:
# sarcoma 37 = experiment: Antitumor activity, life prolongation, sarcoma 37; type: in vivo, mice
# Protocol: (§1) Apart from the tests on Ehrlich ascitic tumor, giniquine was studied on twelve more inoculated tumors. Seven tumors (melanoma B16, sarcoma AK, large intestine carcinoma acatol-1, sarcoma 180, adenocarcinoma 755, Lewis lung carcinoma and sarcoma 37) were inoculated subcutaneously with 50 mg of tumoral cells per mouse. Four tumors (lymphatic leukemies L 5178, L 5178Y, L 1210 and P-388) were inoculated intraperitoneally with 10^6 cells per mouse. One tumor (La, hemocytoblastosis) was inoculated intraperitoneally by injecting 50 mg of cell suspension of spleen and liver of mice suffering La hemocytoblastosis, per mouse. Giniquine was injected intraperitoneally five times for seven days: 1,2,3,4,7 days or 3,4,5,6,7 days after the implantation of tumor. The rate of deceleration of the tumor growth was established 14 days after the ultimate injection of giniquine; life of test animals was recorded for 60 days.
# Brain = experiment: In vivo biosynthesis of DNA, RNA and protein in brain; parameters: species or system mice; conditions: 24 hours, intraperitoneal 28 mg/kg
# Protocol: (§2) The influence of giniquine on biosynthetic processes in the in vivo tests was studied on common white mice of a mass of 25-35 g with Ehrlich ascitic tumor.
# (§3) The mice were divided into two groups. The animals in the first group were given a single injection of the preparation in differing doses, and the animals in the second group were treated with distilled water. Three series of experiments were conducted. In the first series of tests (16 mice) the preparation was injected in a dose of 100 mg/kg ([…] dose), and the animals were decapitated one hour after the injection; in the second test series (16 mice) the animals were slaughtered 3 hours after the injection with other conditions being the same. In the third test series (35 mice) the influence of giniquine on plastic metabolism in tumor cells and normal tissues was studied 24 hours after the injection of a 0.33% solution of the preparation in a dose of 28 mg/kg (therapeutical dose).
# (§4) Labeled precursors of nucleic acids and protein were injected intraperitoneally one hour before the slaughter of the animals (50 μc/100 g). Ascitic fluid, as well as liver and spleen, mucous membrane of small intestine, brain, kidneys and lungs were taken for analysis. 10% suspension was prepared from tumor cells, and 10% homogenates were prepared from tissues in a physiological solution.
# Tumor cells and tissue homogenates for precipitation of nucleic acids were treated with 57% perchloric acid (10:1). […] Radioactivity of DNA and RNA fractions was measured by means of a liquid scintillation counter. The quantity of DNA and RNA was determined by spectrophotometry: the quantity of DNA was determined with diphenylamine, and RNA- with orcin.
# To prepare protein hydrolysate, the suspension of tumoral cells and homogenates of normal tissues were treated with cool 10% trichloracetic acid (1:4), with subsequent centrifuging at 2000 g for ten minutes. […] The radioactivity was measured by means of a liquid scintillation counter. Protein was quantitatively determined by spectrophotometry using a microbiuret reaction.
# Ehrlich ascitic tumor = experiment: Influence of fluorafur on antitumor activity of giniquine, Ehrlich ascitic tumor; type: in vivo, mice
# Protocol: In some experiments the influence of the known preparation fluorofur on the antitumoral activity of giniquine was studied. […] The tests were made on Ehrlich ascitic tumor. The preparations were injected 1,2,3,4 and 7 days after the implantation of tumor. Giniquine was injected intraperitoneally and fluorafur-subcutaneously.
# giniquine was injected intraperitoneally, and fluorafursubcutaneously.
# tumor cells = experiment: Antiblastic activity and selectivity of action on tumor cells (general statement)
# [1] = system: Tumor cells (Ehrlich ascitic tumor); experiment: In vivo biosynthesis of DNA, RNA and protein in tumor cells; parameters: species or system mice; conditions: for Incorporation of 2-^14 C-leucine in protein / Incorporation of 2-^14 C-thymidine in DNA: intraperitoneal 100 mg/kg; for inhibition at 100 mg/kg: Mus musculus, Ehrlich
# Protocol: as §2, §3, §4
# Tumor cells and tissue homogenates for precipitation of nucleic acids were treated with 57% perchloric acid (10:1). Acid-soluble fraction was removed by washing the precipitate twice with 5 ml of 5% perchloic acid with subsequent centrifuging at 2000 g. Nucleic acids were hydrolyzed by the Schneider method. Radioactivity of DNA and RNA fractions was measured by means of a liquid scintillation counter. The quantity of DNA and RNA was determined by spectrophotometry: the quantity of DNA was determined with diphenylamine, and RNA- with orcin.
# To prepare protein hydrolysate, the suspension of tumoral cells and homogenates of normal tissues were treated with cool 10% trichloracetic acid (1:4), with subsequent centrifuging at 2000 g for ten minutes. The precipitate was washed twice with 5 ml of 10% trichloracetic acid. Lipoids were removed by a consecutive treatment of the precipitate with ethanol, saturated solution of sodium acetate, a mixture of ethanol and ether (3:1) and ether. To prepare protein hyhdrolysate, 4 ml of 0.3N KOH were added to the precipitate, and the mixture was placed into a thermostatic chamber at 37° C. for 60 minutes. The radioactivity was measured by means of a liquid scintillation counter. Protein was quantitatively determined by spectrophotometry using a microbiuret reaction.
# sarcoma 180 = experiment: Antitumor activity, sarcoma 180; type: in vivo, mice
# Protocol: as §1
# [2] = Biological availability, ascites of mice with Ehrlich ascitic carcinoma; type: in vivo
# Protocol: The biological availability of giniquine was studied on common white male rats with a mass of 150-200 g and common white male mice with a mass of 25-30 g. The test began seven days after Ehrlich ascitic carcinoma was inoculated to the animals.
# Giniquine was injected intraperitoneally in 100 mg/kg doses, using distilled water as a solvent. The animals were slaughtered at preset time intervals (5,15,30 and 60 minutes) and a biological material (blood and liver for rats and ascites for mice) was taken for analysis. To separate ascitic fluid from the tumor cells, ascites was centrifuged at 2000 r.p.m. for 10 minutes. The precipitate was washed with a mixture of physiological solution and heparin and was again centrifuged under the same conditions, 20% homogenates in distilled water were prepared from ascitic cells.
# Giniquine was extracted from the biological material with chloroform.
# The extraction procedure comprised the following stages: 0.1 ml of ethyl alcohol were added to 1 ml of tested sample and the solution was thoroughly mixed with 0.5 ml of a saturated potassium carbonate solution, then 4 ml of chloroform was added. Closed test tubes were vigorously shaken on a rocker for one hour. After the shaking, the samples were centrifuged at 5000 r.p.m. for ten minutes. The chloroform layer was used for analysis. Daylight was avoided.
# Concentration of the preparation in biological samples was determined by spectrophotometry at 400 nm using molar absorption factor (ε0.10^-3 =36.04).
# The results were expressed in μg/ml of sample. Minimum sensitivity of the method was 1.1 μg/ml.
# [3] = system: lymphatic leukemia L 5178; experiment: Antitumor activity, life prolongation, lymphatic leukemia L 5178; type: in vivo, mice
# Protocol: as §1
# [4] = 24 hours, intraperitoneal 28 mg/kg
smiles,measurement,setting,value
"CCN(CC)CCCC(C)NC(=O)c1cc(C=Cc2ccc([N+](=O)[O-])o2)nc2ccccc12 (stereo not drawn) [giniquine, 2-[2'-(5""-nitrofuryl-2"")vinyl]quinoline-4-carboxylic acid (α-methyl-δ-diethylaminobutyl)amide triphosphate]",Max. life prolong.,"sarcoma 37; common female mice, intraperitoneal, days 1,2,3,4,7, daily doses 6.0-28.0 mg/kg, optimum daily dose 0",0%
same,antiblastic activity / sensitivity (in words),sarcoma 37; sarcoma 37,practically insensitive
same,"Incorporation of specific precursors, DNA",Brain,125.0 % of control
same,"Incorporation of specific precursors, Protein",Brain,105.0 % of control
same,"Incorporation of specific precursors, RNA",Brain,124.0 % of control
same,germicidal activity,Germicidal activity,exhibits a germicidal activity; also recorded: combines in itself both actions
same,Life prolongation,"Ehrlich ascitic tumor; Test No. 1, giniquine 3.6 mg/kg daily",55%
same,Life prolongation,"Ehrlich ascitic tumor; Test No. 1, giniquine 6.0 mg/kg daily",67%
same,Life prolongation,"Ehrlich ascitic tumor; Test No. 1, giniquine 10.0 mg/kg daily",38%
same,Life prolongation,"Ehrlich ascitic tumor; Test No. 1, giniquine 17.0 mg/kg daily",-5%
same,Life prolongation,"Ehrlich ascitic tumor; Test No. 2, giniquine 3.6 mg/kg daily",45%
same,Life prolongation,"Ehrlich ascitic tumor; Test No. 2, giniquine 6.0 mg/kg daily",98%
same,Life prolongation,"Ehrlich ascitic tumor; Test No. 2, giniquine 10.0 mg/kg daily",5%
same,Life prolongation,"Ehrlich ascitic tumor; Test No. 2, giniquine 17.0 mg/kg daily",-48%
same,antiblastic / antitumoral activity,tumor cells,highly active antitumoral preparation
same,selective (contact) action on tumor cells,tumor cells,selective action on tumor cells
same,Incorporation of 2-^14 C-leucine in protein,[1]; 1 h,59.0 % of control
same,Incorporation of 2-^14 C-thymidine in DNA,[1]; 1 h,43.0 % of control
same,Incorporation of 2-^14 C-leucine in protein,[1]; 3 h,14.0 % of control
same,Incorporation of 2-^14 C-thymidine in DNA,[1]; 3 h,30.0 % of control
same,suppression of incorporation of 2-^14 C-thymidine in DNA,"[1]; 24 hours, 28 mg/kg",82%
same,suppression of incorporation of 2-^14 C-uridine in RNA,"[1]; 24 hours, 28 mg/kg",42%
same,"Incorporation of specific precursors, DNA",[1]; [4],18.0 % of control
same,"Incorporation of specific precursors, Protein",[1]; [4],54.0 % of control
same,"Incorporation of specific precursors, RNA",[1]; [4],58.0 % of control
same,inhibition at 100 mg/kg,"[1]; 1 h, one hour, 100 mg/kg, read-out: inhibition of biosynthesis of DNA",57%
same,inhibition at 100 mg/kg,"[1]; 3 h, three hours, 100 mg/kg, read-out: inhibition of biosynthesis of DNA",70%
same,inhibition at 100 mg/kg,"[1]; 3 h, three hours, 100 mg/kg, read-out: inhibition of biosynthesis of protein",86%
same,biosynthesis processes in tumor cells (in words),[1]; in vivo,the same effect on biosynthesis processes in tumor cells
same,suppression of biosynthesis of protein,"[1]; one hour, 100 mg/kg",41%
same,Deceleration of tumor growth,"sarcoma 180; common female mice, intraperitoneal, days 3,4,5,6,7, optim. daily dose 6.0 mg/kg",37%
same,Max. prolongation of life,"sarcoma 180; common female mice, intraperitoneal, days 3,4,5,6,7, optim. daily dose 10.0 mg/kg",23%
same,antitumor effect / sensitivity (in words),sarcoma 180; sarcoma 180,slight antitumor effect
same,concentration in tumoral cells versus ascitic fluid (in words),[2]; 60 minutes,also greater than that in ascitic fluid
same,time of maximum concentration in ascitic cells,[2]; intraperitoneal 100 mg/kg,five minutes
same,concentration in ascitic cells versus ascitic fluid,"[2]; intraperitoneal 100 mg/kg, five minutes",four times greater
same,accumulation (in words),[2]; intraperitoneal injection,mainly accumulates in ascitic cells
same,Cmax at 5 min,"[2]; mouse, ascitic cells, ip, intraperitoneal 100 mg/kg, five minutes, read-out: maximum concentration in ascitic cells",40000 ng/mL
same,concentration at 5 min,"[2]; mouse, ascitic fluid, ip, intraperitoneal 100 mg/kg, five minutes",10000 ng/mL
same,Max. life prolong.,"[3]; common female mice, intraperitoneal, days 1,2,3,4,7, optimum daily dose 10.0 mg/kg",30%
same,antiblastic activity / sensitivity (in words),[3]; lymphatic leukemia L 5178,slight antitumor effect

# Reference: patent US4201784A, “Substituted 2-[2'-(5"-nitrofuryl-2")vinyl-and 4'-(5"-nitrofuryl-2"-1,3-butadieryl]quinoline-4-carboxylic acid amides and salts thereof” (Institut Organicheskogo Sinteza Akademii Nauk Latviiskoi SSR, priority 1977, dated 1980)
